Experimental data: patent US4988691A (priority 1989, dated 1991)
“Also recorded” adds a separate entry of the source. Structures can show the parent of a compound that is named as a salt. Where two headings read alike, the source gives them in different places.

Tests used:
[1] = molecular target: T1, contracturing effect of histamine (Cavia porcellus, UniProt P31389); assay: antihistaminic activity in vitro (contracturing effect of histamine on isolated guinea pig small intestine); design: species or system Guinea pigs
T1 construct: Segments measuring 5-6 cm were drawn form the end portion of the small intestine; from tissue; host or cells: guinea pig terminal small intestine (ileum)

Ca^++ receptors = assay: displacement of 3H-nitrendipine from Ca++ receptors, rat brain membranes; type: binding; settings: 3H-nitrendipine 1nM
[2] = molecular target: T2, contracturing effect of acetylcholine (Cavia porcellus, UniProt H0W1Z3); assay: anticholinergic activity in vitro (contracturing effect of acetylcholine on isolated guinea pig small intestine); design: species or system Guinea pigs
T2 construct: Segments measuring 5-6 cm were drawn form the end portion of the small intestine; from tissue; host or cells: guinea pig terminal small intestine (ileum)

5-HT3 receptors [3] = molecular target: T3, 5-HT3 receptors (Oryctolagus cuniculus, UniProt A0A5F9C9J3); assay: anti-5-HT3 activity in vitro on the isolated vagus nerve of rabbit
T3 construct: from tissue; host or cells: isolated rabbit vagus nerve
T3 sequence (A0A5F9C9J3 1-494): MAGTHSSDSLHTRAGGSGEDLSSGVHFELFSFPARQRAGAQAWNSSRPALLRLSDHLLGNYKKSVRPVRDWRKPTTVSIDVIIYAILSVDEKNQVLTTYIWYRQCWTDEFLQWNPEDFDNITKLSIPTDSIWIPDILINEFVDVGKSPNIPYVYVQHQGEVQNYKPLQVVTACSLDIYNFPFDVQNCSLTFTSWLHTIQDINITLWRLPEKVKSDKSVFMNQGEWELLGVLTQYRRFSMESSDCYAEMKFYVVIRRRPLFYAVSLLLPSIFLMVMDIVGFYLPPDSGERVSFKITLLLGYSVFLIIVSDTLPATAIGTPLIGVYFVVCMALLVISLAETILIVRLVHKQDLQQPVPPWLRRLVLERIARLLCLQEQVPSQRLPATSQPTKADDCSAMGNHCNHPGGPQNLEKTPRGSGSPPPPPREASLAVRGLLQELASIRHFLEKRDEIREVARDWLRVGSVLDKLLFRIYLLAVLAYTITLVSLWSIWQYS
Protocol: (b) Evaluation of the anti-5-HT3 activity in vitro on the vagus nerve of rabbit. Male albino New Zeland rabbits weighing about 3 kg were sacrified by an air injection in the edge auriculaers vein. The two vagus nerves, drawn as soon as possible, were placed in a bath of Locke solution having the following composition: 154 mM NaCl; 5.5 mM KCl; 2.2 mM CaCl2; 5 mM glucose; 8 mM TRIS, the pH being adjusted at 7.6 by addition of HCl. Nerves were stripped of their epineurium and transferred into a device described by Kosterlitz H. W. et al., [J. Physiol., 183, IP-3P, (1966)] consisting of four compartments separated by means of 3 elastic membranes having a little hole through which the nerve passes. The glucose concentration perfusing a portion of the nerve was 315 mM. The overmaximal electric stimulation by a single shock at 10 seconds intervals elicited a potential visualized on a storage oscilloscope. In the potential the complexes due to the excitation of fibers A, B and C were distinguished. A serotonin solution applied to the nerve causes the dose-dependent fall of the potential for fibers C only. The non variation of the A-B complex when applying serotonin and the test compounds of formula I indicates on one hand the specific action of the substances for receptors relating to fibers C only (5-HT3 receptors) and on the other hand the absence of local-anaesthetic activity. Tests were performed at room temperature (24°-25° C.). The optimum maximum reduction of the potential of fibers C by serotonin resulted to be 44%. This reduction was adopted as maximum effect (100%). For each nerve a dose-response curve was constructed with cumulative doses of serotonin. After having washed serotonin and recovered the initial potential, the nerve was balanced with a fixed concentration of the compound of formula I for 60 minutes and successively the dose-response curve to serotonin was repeated, the compound of formula I being always present in the same concentration. After having applied a serotonin concentration sufficient to produce the highest effect, the preparation was washed and thereafter it was balanced again for 60 minutes with a solution of the same compound of formula I having a higher concentration. The procedure was then repeated. For each dose of the compound of formula I the test was repeated more than 5 times. The negative […] logarithm of the molar concentration of the compound of formula I which gives a 50% reduction of the effect of the agonist substance (pA2) was calculated. In table 7, the pA2 values of some compounds of formula I are reported.

5-HT2 receptors = 5-HT2 receptors (Rattus norvegicus, UniProt P14842); assay: affinity for 5-HT2 receptors (3H-spiroperidol binding), rat cortex membranes; settings: rat frontal cortex membranes
5-HT1 receptors = assay: affinity for 5-HT1 receptors (3H serotonin binding), rat cortex membranes; settings: 3H-serotonin 5 nM; rat frontal cortex membranes
[4] = system: receptors for benzodiazepins; assay: displacement of 3H-flunitrazepam from benzodiazepine receptors, rat cerebral cortex membranes; type: binding; settings: 3H-flunitrazepam 1nM
guinea pig back = assay: local anaesthetic activity in the test of the guinea pig back in vivo (intracutaneous infiltration); settings: for ED50 (C.L. 95%), 5 min. / ED50 (C.L. 95%), 15 min. / ED50 (C.L. 95%), 30 min.: guinea pig back, cutaneous anaesthesia, 0.25 ml; for ED50 (C.L. 95%), 5 min.: 5 min. after administration; for ED50 (C.L. 95%), 15 min.: 15 min. after administration; for ED50 (C.L. 95%), 30 min.: 30 min. after administration
Protocol: (b) Evaluation of the local anaesthetic activity in the test of the guinea pig back in vivo in comparison with lidocaine.
The local anaesthetic activity was evaluated by the method of intracutaneous infiltration in the guinea pig back as described by Bulbring E. and Wajda I. [(J. Pharmacol. Exp. Ther. 85, 78, (1945)].
Female guinea pigs weighin 400-500 g were treated intracutaneously in 4 points of their back.
At 5 minutes intervals, it was determined the reactivity of the animal to pain in each area by considering the number of responses to 6 pain stimulations.
Compounds of formula I, compound R and lidocaine, dissolved at different concentration in physiological solution adjusting the pH at 7 by addition of NaHCO3 were injected under the skin at the constant volume of 0.25 ml.
The distribution of the treatments in the 4 areas of the back was carried out according to the scheme of the Latin square. Experiments were carried out in blind.
As an example, the ED50 values for compound No. 8, compound R and lidocaine determined at 5, 15 and 30 minutes after the administration are reported in table 4.

[5] = system: norepinephrine induced arrythmias in rat; assay: inhibition of norepinephrine induced arrythmias in rat; type: in vivo; settings: for ED50: Rattus norvegicus, 50% reduction of arrythmia duration
Protocol: Male rats, weighing 300-400 g, narcotized with urethan (1.5 g/kg, i.p.) were used; one little probe was implanted into the jugular vein and another into the femoral vein for administering norepinephrine and the test substance respectively. The EGC was recorded in II derivation and from it the instantaneous heart rate was derived. Furthermore, the EGC wave was monitored on oscilloscope and made audible by mean of a loudspeaker. Norepinephrine (75 μg/kg/min. for 15 seconds, 7-8 μg/animal) was administered by means of a Braun perfusion apparatus. The dose of administered norepinephrine was established in preliminary tests so as to cause an arrythmia of a duration equal to or higher than 10 seconds. The arising time of the heart arrythmia starting from the beginning of the norepinephrine perfusion and the duration of the arrythmic phase were recorded. Tests of arrythmia duration for each animal were performed; thereafter the compounds of formula I and the compound R were administered intravenously or per os 2 minutes or 1 hour respectively before a fourth norepinephrine infusion. The activity of test compounds was evaluated as increasing percentage in the time of the arising of arrythmia as well as of the inhibition (duration of the arrythmic phase). For each dose at least 5 tests were performed. In table 9 we report as an example the ED50 values defined as 50% reduction of the duration of arrythmias after the administration of both compound No. 8 and compound R either intravenously (i.v.) or per os (p.o.).

rat sciatic nerve = assay: local anaesthetic activity on sciatic nerve preparation in vitro; settings: for IC50: read-out: ED50 (C.L. 95%)
[6] = system: reperfusion induced arrythmias in rat; assay: inhibition of reperfusion induced arrythmias in rat; type: in vivo; settings: for % VF / % dead: 10 treated rats; for incidence dead / incidence VF: number of 10 treated rats
5-HT3 receptors [7] = molecular target: T4, 5-HT3 receptors (Rattus norvegicus, UniProt P35563); assay: anti-5-HT3 activity in vivo, inhibition of the Bezold-Jarisch effect; settings: intravenous, read-out: ED50 to the antagonism of the heart rate fall (Bezold-Jarisch effect)
T4 construct: Male albino rats weighing 300-400 g anaesthetized with urethan; from tissue; host or cells: whole anaesthetized rat (endogenous receptor on cardiac vagal afferents)
T4 sequence (P35563 24-483): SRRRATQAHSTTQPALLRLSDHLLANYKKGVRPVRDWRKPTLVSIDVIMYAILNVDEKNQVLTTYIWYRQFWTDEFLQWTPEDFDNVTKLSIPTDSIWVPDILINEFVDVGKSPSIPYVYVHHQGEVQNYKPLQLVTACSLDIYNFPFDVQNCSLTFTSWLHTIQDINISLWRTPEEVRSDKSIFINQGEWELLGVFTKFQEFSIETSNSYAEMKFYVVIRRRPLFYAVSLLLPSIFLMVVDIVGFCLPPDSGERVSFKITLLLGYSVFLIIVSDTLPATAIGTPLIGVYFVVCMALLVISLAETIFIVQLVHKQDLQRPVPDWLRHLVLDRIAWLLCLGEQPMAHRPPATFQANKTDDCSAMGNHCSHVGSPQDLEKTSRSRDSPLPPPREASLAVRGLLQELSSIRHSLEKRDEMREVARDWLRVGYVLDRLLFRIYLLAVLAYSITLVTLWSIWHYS
From the text: (a) Evaluation of the anti-5-HT3 activity in vivo by the method of the inhibition of the Bezold-Jarisch effect. The followed method was described by Fozard J. R. et al. [Nature, 316, 126-131, (1985)]. Male albino rats weighing 300-400 g anaesthetized with urethan (1.25-1.5 g/kg i.p.) were used. A tracheal cannula to allow respiration, one little catheter implanted into the jugular vein for administering serotonin and another into the right femoral vein for the intravenous administration of the compounds of formula I and of compound R were used. The bolus injection into the jugular vein of a serotonin solution caused an abrupt reduction of the heart rate quantified as 100% of the effect. The evaluation of the anti-5-HT3 activity was performed by calculating ED50 values (μg/kg) to the antagonism of the heart rate fall.

[8] = iv, 2 min, i.v., 2 minutes before norepinephrine, read-out: ED50 i.v.
[9] = po, 1 hour before norepinephrine, read-out: ED50 p.o.
[10] = 3 mg/kg per os, *** significance < 0.001

T1 sequence (P31389 whole entry): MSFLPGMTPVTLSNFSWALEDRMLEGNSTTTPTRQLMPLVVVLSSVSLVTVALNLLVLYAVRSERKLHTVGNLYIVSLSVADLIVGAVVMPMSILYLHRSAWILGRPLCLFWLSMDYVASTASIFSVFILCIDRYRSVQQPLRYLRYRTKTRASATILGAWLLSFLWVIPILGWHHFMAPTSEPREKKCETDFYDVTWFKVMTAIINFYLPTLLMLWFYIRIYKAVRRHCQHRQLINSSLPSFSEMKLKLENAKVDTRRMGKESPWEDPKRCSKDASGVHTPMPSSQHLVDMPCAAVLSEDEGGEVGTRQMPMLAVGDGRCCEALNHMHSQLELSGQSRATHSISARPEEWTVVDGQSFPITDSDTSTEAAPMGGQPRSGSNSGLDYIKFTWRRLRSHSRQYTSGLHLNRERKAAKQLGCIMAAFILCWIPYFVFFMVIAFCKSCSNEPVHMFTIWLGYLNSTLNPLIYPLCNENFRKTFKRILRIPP
T2 sequence (H0W1Z3 1-590): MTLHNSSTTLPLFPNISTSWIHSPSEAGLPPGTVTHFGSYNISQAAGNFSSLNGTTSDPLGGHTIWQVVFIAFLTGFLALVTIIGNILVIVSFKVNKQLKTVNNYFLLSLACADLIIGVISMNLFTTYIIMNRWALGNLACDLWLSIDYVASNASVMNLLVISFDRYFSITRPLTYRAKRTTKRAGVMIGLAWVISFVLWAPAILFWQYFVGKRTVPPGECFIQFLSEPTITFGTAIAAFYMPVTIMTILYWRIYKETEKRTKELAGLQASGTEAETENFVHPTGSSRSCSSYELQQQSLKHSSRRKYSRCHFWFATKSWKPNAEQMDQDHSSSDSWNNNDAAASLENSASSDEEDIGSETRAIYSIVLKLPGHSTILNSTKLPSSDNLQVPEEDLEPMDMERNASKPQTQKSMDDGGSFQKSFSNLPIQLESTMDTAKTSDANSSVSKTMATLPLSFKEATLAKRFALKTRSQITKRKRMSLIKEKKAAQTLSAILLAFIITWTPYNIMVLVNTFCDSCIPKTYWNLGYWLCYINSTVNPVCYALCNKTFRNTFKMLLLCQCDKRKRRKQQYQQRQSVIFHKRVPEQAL
Sequence of 5-HT2 receptors (P14842 whole entry): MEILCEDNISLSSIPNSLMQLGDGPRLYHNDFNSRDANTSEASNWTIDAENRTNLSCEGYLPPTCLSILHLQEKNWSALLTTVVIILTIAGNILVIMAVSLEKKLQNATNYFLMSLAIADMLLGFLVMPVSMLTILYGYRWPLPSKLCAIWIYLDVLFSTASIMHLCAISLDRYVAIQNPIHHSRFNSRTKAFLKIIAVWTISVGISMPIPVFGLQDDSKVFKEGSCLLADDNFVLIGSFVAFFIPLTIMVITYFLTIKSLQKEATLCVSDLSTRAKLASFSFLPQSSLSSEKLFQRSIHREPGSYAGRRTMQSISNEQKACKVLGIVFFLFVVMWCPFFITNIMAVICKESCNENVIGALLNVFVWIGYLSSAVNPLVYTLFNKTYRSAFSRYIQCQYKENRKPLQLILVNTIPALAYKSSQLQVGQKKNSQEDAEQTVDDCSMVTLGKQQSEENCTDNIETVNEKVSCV

Row | SMILES | Displacement activity at receptors of Ca++ (Ca^++ receptors) | Kb [2] [µM] | Affinity (IC50) to 5-HT1 receptors (5-HT1 receptors) | Displacement activity at benzodiazepine receptors [4] | ED50 (C.L. 95%), 5 min. (guinea pig back) | ED50 (C.L. 95%), 15 min. (guinea pig back) | ED50 (C.L. 95%), 30 min. (guinea pig back) | ED50 [5, 8] [mg/kg] | ED50 [5, 9] [mg/kg] | % VF ([6]; 3 mg/kg per os) [%] | % dead ([6]; 3 mg/kg per os) [%] | incidence dead ([6]; 3 mg/kg per os) | incidence VF [6, 10] | other results
1 | Cc1cc(C(=O)O[C@H]2C[C@H]3CC[C@@H](C2)N3C)no1 [Compound 8, 5-methylisoxazole-3-carboxylic acid 3-(endo-8-methyl-8-azabicyclo[3,2,1]octyl) ester hydrochloride] | inactive | 6.31 | inactive | inactive | 28.4 (25.5-31.8) mM | 32.8 (30.5-35.2) mM | 41.2 (38.8-43.7) mM | 0.125 | 0.35 | 0 | 0 | 0 | 0 | Kb ([1]; vs histamine, guinea pig small intestine, 37° C., test compounds 10^-5 M, read-out: Antihistaminic activity (pA2) (converted)): 6.31 µM; Kb (5-HT3 receptors [3]): 0.000631 µM; Affinity (IC50) to 5-HT2 receptors (5-HT2 receptors; 3H-spiroperidol […]): inactive; local anaesthetic activity, guinea pig back (in words) (guinea pig back; guinea pig, in vivo): undoubtedly less active as local anaesthetic than compound R and lidocaine; activity in norepinephrine-induced arrythmia (in words) ([5]; intravenously or per os): much more active than the compound R; IC50 (rat sciatic nerve; rat, sciatic nerve, 8 min): > 15000 µM; % VF ([6]; 1 mg/kg per os): 20%; % dead ([6]; 1 mg/kg per os): 10%; incidence dead ([6]; 1 mg/kg per os): 1; incidence VF ([6]; 1 mg/kg per os, ** significance < 0.02): 2; antiarrythmic activity, reperfusion induced arrythmias (in words) ([6]; per os): active in the test of reperfusion-induced arrythmias
2 | CN1[C@@H]2CC[C@H]1C[C@@H](OC(=O)c1c[nH]c3ccccc13)C2 [R, 3-endo-tropanyl indol-3-yl carboxylate, reference compound] | inactive | 15.8 | inactive | 1,000 | 2.5 (2.1-2.9) mM | 3.3 (3.0-3.7) mM | 5.7 (5.2-6.2) mM | 0.65 | 4 | 70 | 30 | 3 | 7 | Kb [1]: 3.16 µM; antihistaminic activity (in words) [1]: practically free of anticholinergic and antihistaminic activity; ED50 (5-HT3 receptors [7]): 0.006 mg/kg; anticholinergic activity (in words) [2]: practically free of anticholinergic and antihistaminic activity; IC50 (5-HT2 receptors; 3H-spiroperidol 0.25 nM): 25 µM; local anaesthetic activity (in words) (rat sciatic nerve): good activity; also recorded: comparable with that of lidocaine; IC50 (rat sciatic nerve; rat sciatic nerve in vitro, 8 minutes contact): 1300 µM
